Experimental data as given in patent US8637522B2, “Pyrazinone derivatives as insulin secretion stimulators, methods for obtaining them and use thereof for the treatment of diabetes” (Merck Patent GmbH, priority 2008, dated 2014).

Tests used:
INS-1 cells = assay: Insulin secretion assay in INS-1 cells (glucose at 4.2 mM); assay type: cell-based; settings: Rattus norvegicus, INS1, glucose 4.2 mM, 1 h incubation; for activity at 10 µM: compound 10 μM, read-out: Insulin secretion, % of ctrl at 10 μM; for activity at 50 µM: compound 50 μM, read-out: Insulin secretion, % of ctrl at 50 μM
Experimental: Culture of Pancreatic INS-1 Cells
INS-1 cells were cultured in complete medium, RPMI 1640 containing 1 mM sodium pyruvate, 50 μM 2-mercaptoethanol, 2 mM glutamine, 10 mM HEPES, 100 IU/mL penicillin, and 100 μg/mL streptomycin (CM), supplemented with 10 mM glucose, and 10% (vol/vol) heat-inactivated fetal calf serum (FCS), as described by Asfari et al. (Endocrinology 130: 167-178, 1992).
INS-1 cells were plated and cultured in 48-well plates. After 2 days of culture, the medium was removed and cells were cultured for 24 h with a medium change to 5 mM glucose, 1% FCS. The cells were then washed with Krebs-Ringer Bicarbonate HEPES buffer (KRBH; 135 mM NaCl; 3.6 mM KCl; 5 mM NaHCO3; 0.5 mM NaH2PO4;
0.5 mM MgCl2; 1.5 mM CaCl2 and 10 mM HEPES; pH 7.4) 0.1% BSA containing 2.8 mM glucose and preincubated for 30 min at 37° C. in the same buffer. The cells were then washed twice and incubated for 1 h in KRBH 0.1% BSA containing 4.2 mM glucose and different concentrations of the tested molecule. Insulin concentration in the collected supernatants was measured with ELISA using rat insulin antibody (Insulin Rat Elit PLUS, cat. ref 10-1145-01).
Insulin secretion results are expressed in % of control (glucose 4.2 mM).
Insulin Secretion in INS-1 Cells (Glucose at 4.2 mM)

[1] = tested on: diabetic N0STZ rat islets; assay: Insulin secretion in diabetic N0STZ rat islets; assay type: cell-based; settings: 90 min, mean ± SEM
Experimental: Insulin Secretion in Diabetic N0STZ Rat Islets. Materials and Methods. Islets Isolation and Treatments.
14±3 weeks non-fasted N0STZ (PORTHA et al., 1974) male rats (Charles Rivers-Domaine des Oncins, I'Arbresle, France) were anesthetised with sodium pentobarbital (Nembutal®: 45 mg/kg in 5 ml/kg administered intra peritoneally) and body temperature was maintained with a heat lamp.
Rat pancreatic islets of Langerhans were isolated from the pancreas of 8 rats by collagenase P (Boehringer, Meylan, France) digestion. Islets were purified by sedimentation in Hanks balanced salt solution [NaCl (137 mM); KCl (5.36 mM); MgSO4, 7H2O (0.81 mM); Na2HPO4, 12H2O (0.34 mM); KH2PO4 (0.44 mM); CaCl2, 2H2O (1.26 mM); NaHCO3 (4.17 mM)] followed by Ficoll gradient separation.
Islets were then hand-picked under stereoscopic microscope and batches of 3 islets were incubated for 90 minutes at 37° C. with continuous shaking under a humidified condition (95% O2, 5% CO2) in 1 ml of Krebs/Hepes pH 7 solution [NaCl (115 mM), NaHCO3 (24 mM), KCl (5 mM), MgCl2 (1 mM), CaCl2, 2H2O (1 mM), 0.2% of Bovine serum albumin (Fraction V, fatty acid free, Boehringer, Mannheim), 10 mM Hepes] containing the required glucose or compound concentration.
Compounds were dissolved in DMSO at 2.10-2M stock solutions. They were then diluted at the required concentration in Krebs/Hepes buffer containing the required glucose concentration.
At the end of incubation, media was collected and insulin levels were measured using ELISA (EUROBIO, Courtaboeuf, France).
Islets were hand-picked and incubated in the presence of increasing concentrations of compounds in the presence of glucose at 2.8 or 8 mM. At the end of incubation, media was collected and insulin levels were measured using ELISA method. Results are expressed as % of glucose control (2.8 or 8 mM) and represent Means±SEM.

[2] = glucose 2.8 mM, compound 10−4 M

melting point [°C] | SMILES | activity at 10 µM (INS-1 cells) [%] | activity at 50 µM (INS-1 cells) [%] | other results
115 to 118 | CCn1ccnc(S(=O)(=O)Cc2ccc(Cl)cc2)c1=O [Example 6-2, 3-[(4-chlorobenzyl)sulfonyl]-1-ethylpyrazin-2(1H)-one] | 142 | 276 | 
128 to 130 | CCCn1ccnc(S(=O)(=O)Cc2ccc(C)cc2)c1=O [Example 6-3, 3-[(4-methylbenzyl)sulfonyl]-1-propylpyrazin-2(1H)-one] | 144 | 207 | Insulin secretion, % of glucose control [1, 2]: 121 ± 7 % of glucose control; Insulin secretion, % of glucose control ([1]; glucose 8 mM, compound 10−4 M): 271 ± 5 % of glucose control; Insulin secretion, % of glucose control ([1]; glucose 8 mM, compound 10−5 M): 131 ± 5 % of glucose control; Insulin secretion, % of glucose control ([1]; glucose 8 mM, compound 10−6 M): 108 ± 5 % of glucose control; Insulin secretion, % of glucose control ([1]; glucose 8 mM, compound 10−7 M): 101 ± 6 % of glucose control
123 to 125 | CCCn1ccnc(S(=O)(=O)Cc2ccc(F)cc2)c1=O [Example 6-4, 3-[(4-fluorobenzyl)sulfonyl]-1-propylpyrazin-2(1H)-one] | 142 | 203 | 
133 to 135 | CCCn1ccnc(S(=O)(=O)Cc2ccccc2)c1=O [Example 6-5, 3-(benzylsulfonyl)-1-propylpyrazin-2(1H)-one] |  |  | 
135 to 138 | CCn1ccnc(S(=O)(=O)Cc2ccc(Br)cc2)c1=O [Example 6-6, 1-ethyl-3-[(4-bromobenzyl)sulfonyl]pyrazin-2(1H)-one] | 164 | 362 | 
100 to 103 | CCn1ccnc(S(=O)(=O)CCOc2ccc(OC)cc2)c1=O [Example 10-7, 1-ethyl-3-{[2-(4-methoxyphenoxy)ethyl]sulfonyl}pyrazin-2(1H)-one] |  |  | 

Second part, the compound before the results:

SMILES | melting point [°C] | activity at 10 µM (INS-1 cells) [%] | activity at 50 µM (INS-1 cells) [%] | other results
CCn1ccnc(S(=O)(=O)Cc2ccccc2)c1=O [Example 6, 3-benzylsulfonyl-1-ethylpyrazin-2(1H)-one] |  | 128 | 184 | 
CCCn1ccnc(S(=O)(=O)Cc2ccc(Cl)cc2)c1=O [Example 10, 3-[(4-chlorobenzyl)sulfonyl]-1-propylpyrazin-2(1H)-one] | 125 to 128 | 155 | 331 | Insulin secretion, % of glucose control [1, 2]: 178 ± 7 % of glucose control; Insulin secretion, % of glucose control ([1]; glucose 8 mM, compound 10−4 M): 203 ± 11 % of glucose control; Insulin secretion, % of glucose control ([1]; glucose 8 mM, compound 10−5 M): 133 ± 7 % of glucose control; Insulin secretion, % of glucose control ([1]; glucose 8 mM, compound 10−6 M): 90 ± 4 % of glucose control; Insulin secretion, % of glucose control ([1]; glucose 8 mM, compound 10−7 M): 84 ± 7 % of glucose control
CCCCn1ccnc(S(=O)(=O)Cc2ccccc2F)c1=O [Example 10-3, 1-butyl-3-[(2-fluorobenzyl)sulfonyl]pyrazin-2(1H)-one] |  | 108 | 236 | 
CCCCn1ccnc(S(=O)(=O)Cc2cccc(C(F)(F)F)c2)c1=O [Example 10-4, 1-butyl-3-[(3-trifluoromethylbenzyl)sulfonyl]pyrazin-2(1H)-one] |  | 187 | 272 | 
CCCCn1ccnc(S(=O)(=O)Cc2ccc(Cl)cc2)c1=O [Example 10-5, 1-butyl-3-[(4-chlorobenzyl)sulfonyl]pyrazin-2(1H)-one] |  | 153 | 261 | 
CCCn1ccnc(S(=O)(=O)CCc2ccc(Cl)cc2)c1=O [Example 10-6] |  | 127 | 180 | 
CCn1cc(Br)nc(S(=O)(=O)Cc2ccc(Cl)cc2)c1=O [Example 13, 5-bromo-3-[(4-chlorobenzyl)sulfonyl]-1-ethylpyrazin-2(1H)-one] | 145 to 147 |  |  | 
CCn1cc(-c2ccccc2)nc(S(=O)(=O)Cc2ccc(Cl)cc2)c1=O [Example 14, 3-[(4-chlorobenzyl)sulfonyl]-1-ethyl-5-phenylpyrazin-2(1H)-one] | 146 to 148 |  |  | 
CCn1cc(-c2ccc(Cl)cc2)nc(S(=O)(=O)Cc2ccc(Cl)cc2)c1=O [Example 14-2, 3-[(4-chlorobenzyl)sulfonyl]-5-(4-chlorophenyl)-1-ethylpyrazin-2(1H)-one] |  | 181 |  | 
CCn1cc(Cl)nc(SCC(=O)Nc2ccccc2)c1=O [Example 17, 2-[(6-chloro-4-ethyl-3-oxo-3,4-dihydropyrazin-2-yl)thio]-N-phenylacetamide] | 156 to 158 |  |  | 
CCn1cc(Cl)nc(S(=O)(=O)CC(=O)Nc2ccccc2)c1=O [Example 18, 2-[(6-chloro-4-ethyl-3-oxo-3,4-dihydropyrazin-2-yl)sulfonyl]-N-phenylacetamide] | 178 to 180 |  |  | 
CCn1cc(Cl)nc(S(=O)(=O)CC(=O)N2CCCCC2)c1=O [Example 18-2, 5-chloro-1-ethyl-3-[(2-oxo-2-piperidin-1-ylethyl)sulfonyl]pyrazin-2(1H)-one] |  | 159 | 213 | 
